The values below come from ChEMBL document CHEMBL1144924, “Calculation of the binding affinity of beta-secretase inhibitors using the linear interaction energy method” (J Med Chem, 2003).

SMILES strings stand for the structures. pKi: −log10 of the molar value.

Chain of Beta-secretase 1 (P56817 whole entry): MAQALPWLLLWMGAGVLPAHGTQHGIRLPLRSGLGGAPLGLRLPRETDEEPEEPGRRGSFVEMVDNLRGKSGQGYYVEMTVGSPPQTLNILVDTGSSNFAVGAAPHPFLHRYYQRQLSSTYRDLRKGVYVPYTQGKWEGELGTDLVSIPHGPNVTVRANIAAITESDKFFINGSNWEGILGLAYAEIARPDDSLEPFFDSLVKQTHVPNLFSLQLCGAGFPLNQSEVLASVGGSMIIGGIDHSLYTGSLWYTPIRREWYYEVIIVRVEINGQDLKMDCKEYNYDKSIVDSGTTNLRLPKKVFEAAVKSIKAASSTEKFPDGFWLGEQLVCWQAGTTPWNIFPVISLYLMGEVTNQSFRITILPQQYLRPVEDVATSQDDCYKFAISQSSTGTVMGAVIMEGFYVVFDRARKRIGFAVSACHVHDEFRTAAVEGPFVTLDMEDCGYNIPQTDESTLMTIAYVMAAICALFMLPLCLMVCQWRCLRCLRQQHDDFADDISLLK

The assay addresses Beta-secretase 1 (Homo sapiens, UniProt P56817). The assay can be described thus: Binding affinity for human brain memapsin 2 beta-Secretase (BACE).
What is called pKi is the Ki on a negative log10 scale, so that one unit is a factor of ten. Low readings indicate a large Ki, high ones a small Ki. Molecule `CSCCC(NC(=O)[C@@H](NC(=O)OC(C)(C)C)C(C)C)C(=O)N[C@@H](CC(C)C)C(O)CC(C)C(=O)NC(C(=O)NCc1ccccc1)C(C)C` (some centres undefined) showed a pKi of 8.60.

In turn, `CC(C)C[C@H](NC(=O)C(CS(C)(=O)=O)NC(=O)[C@@H](NC(=O)OC(C)(C)C)C(C)C)C(O)CC(C)C(=O)NC(C(=O)NCc1ccccc1)C(C)C` (some centres undefined) showed a pKi of 8.03.

`CC(C)C[C@H](NC(=O)[C@H](CS(C)(=O)=O)NC(=O)OC(C)(C)C)C(O)CC(C)C(=O)NC(C(=O)NCc1ccccc1)C(C)C` (some centres undefined) gave a negative logarithm of the Ki (pKi) of 5.95.

On to `CC(C)C[C@H](NC(=O)C(CC(N)=O)NC(=O)[C@@H](NC(=O)OC(C)(C)C)C(C)C)C(O)CC(C)C(=O)NC(C(=O)NCc1ccccc1)C(C)C` (some centres undefined), for which the pKi was 8.23.

Take `CC(C)C[C@H](NC(=O)[C@H](CC(N)=O)NC(=O)OC(C)(C)C)C(O)CC(C)C(=O)NC(C(=O)NCc1ccccc1)C(C)C` (some centres undefined): the pKi is 5.50.

Take `CC(C)C[C@H](NC(=O)[C@H](CC(N)=O)NC(=O)OC(C)(C)C)C(O)CC(C)C(=O)NC(C)C(=O)NCc1ccccc1` (some centres undefined): the pKi is 4.65.

`CSCC(NC(=O)[C@@H](NC(=O)OC(C)(C)C)C(C)C)C(=O)N[C@@H](CC(C)C)C(O)CC(C)C(=O)NC(C(=O)NCc1ccccc1)C(C)C` (some centres undefined) gave a pKi of 7.30.

With `CC(C)C[C@H](NC(=O)C(CC(N)=O)NC(=O)[C@@H](NC(=O)OC(C)(C)C)C(C)C)C(O)CC(C)C(=O)NC(C)C(=O)NCc1ccccc1` (some centres undefined), the pKi was 7.21.

`CSCCC(NC(=O)OC(C)(C)C)C(=O)N[C@@H](CC(C)C)C(O)CC(C)C(=O)NC(C(=O)NCc1ccccc1)C(C)C` (some centres undefined): the pKi was 5.24.
